Results on 23 compounds are retold here after article PMC6429356, “Development of Anthraquinone Analogues as Phosphoglycerate Mutase 1 Inhibitors” (Molecules, 2019).

In one experiment the target is T1, PGAM1 (Homo sapiens, UniProt P18669).
T1 construct: His6 (C); made in house
Kind of experiment: PGAM1 enzymatic assay (enolase-pyruvate kinase-LDH coupled, OD 340 nm). In kind it is biochemical. To be noted: for inhibition at 10 µM: 10 μM compound, mean ± s.d. (n = 2); for IC50: optimized enzymatic assay, mean ± s.d. (n = 3). The method, then: (§1) Firstly, 1 μL inhibitor in dimethyl sulfoxide (DMSO) incubated with 49 μL 4.6 nM recombinant PGAM1, then 50 μL enzyme mix containing 3 units/mL enolase (Sigma-Aldrich, Saint Louis, MO, USA), 3 units/mL recombinant pyruvate kinase M2 (Sigma-Aldrich), 0.6 units/mL recombinant lactatdehydrogenase (LDH, Sigma-Aldrich), 100 mM Tris-HCl, 100 mM KCl, 5 mM MgCl2, 1 mM adenosine diphosphate (ADP), 0.2 mM the reduced form of nicotinamide adenine dinucleotide (NADH) and 4 mM 3PG was added. PGAM1 activity was measured as the decrease in OD at 340 nm. In addition, we performed a counter screening in which 4mM 2PG was added to 50 μL reaction mix containing the indicated inhibitor, 3 units/mL enolase (Sigma-Aldrich), 3 units/mL recombinant pyruvate kinase M2 (Sigma-Aldrich), 0.6 units/mL recombinant LDH (Sigma-Aldrich), 100 mM Tris-HCl, 100 mM KCl, 5 mM MgCl2, 1 mM ADP and 0.2 mM NADH. The other three enzyme activity was measured as the decrease in OD at 340 nm.

Experiment [1] deals with enolase-pyruvate kinase-LDH. As to the kind of experiment: Counter screening: control linked enzyme assay with 2PG. Format: biochemical. The settings on record: 0.5 μM compound, pyruvate kinase M2, LDH without PGAM1, mean ± s.d. (n = 2). Here is the method: as §1
(Counterscreens check selectivity or assay interference.)

For a further experiment, the system named is H1299 cells. Kind of experiment: Cell viability assay (MTT, 72 h), H1299. Format: cell-based. To be noted: Homo sapiens, NCI-H1299, proliferation, mean ± s.d. (n = 3). The method, then: The H1299 cell line was obtained from Guangzhou Jenniobio Biotechnology Co., Ltd. (Guangzhou, China), PC9 and A549 cells were gifted from Deng Jiong’s lab in the School of Medicine, Shanghai Jiao Tong University, Shanghai, China). H1299, PC9 cells were cultured in RPMI-1640 medium and A549 cells were cultured in F-12K medium containing 10% fetal bovine serum (FBS), 100 units/mL of Penicillin and 100 μg/mL Streptomycin. In cell viability assays, 2000 H1299 cells, A549 cells or 1000 PC9 cells per well were seeded in 96-well plate. After attachment for 24 h, the cells were treated with indicated inhibitor for 72 h. After incubation with 0.5 mg/mL methylthiazolyldiphenyl-tetrazolium bromide (MTT) for 4 h, cell viability was measured as the OD at 570 nm.

T1 sequence (P18669 whole entry): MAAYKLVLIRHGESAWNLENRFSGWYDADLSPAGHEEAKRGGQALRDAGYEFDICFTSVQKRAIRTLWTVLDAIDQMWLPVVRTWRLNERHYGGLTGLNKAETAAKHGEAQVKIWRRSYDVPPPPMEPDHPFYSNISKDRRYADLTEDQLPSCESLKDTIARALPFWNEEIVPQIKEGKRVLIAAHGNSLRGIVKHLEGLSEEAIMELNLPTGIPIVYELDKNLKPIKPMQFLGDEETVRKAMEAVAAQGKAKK

The term inhibition denotes the change of the read-out against control, counted positive when it falls. With `CCOC(=O)COc1ccc2c(c1OCC(=O)OCC)C(=O)c1ccccc1C2=O` [Compound 6a, diethyl 2,2′-((9,10-dioxo-9,10-dihydroanthracene-1,2-diyl)bis(oxy)) diacetate], the inhibition at 10 µM at PGAM1 is -0.6 ± 1%.
The IC50 is the concentration at which inhibition is half-maximal. Lower therefore signals higher potency. Consider `O=C1c2ccccc2C(=O)c2c1cc(NS(=O)(=O)c1c(Cl)cccc1Cl)c(O)c2O` [Compound 9k, 2,6-Dichloro-N-(3,4-dihydroxy-9,10-dioxo-9,10-dihydroanthracen-2-yl) benzenesulfonamide], for which the half-inhibitory concentration (IC50) was 0.89 ± 0.33 µM against PGAM1 and 34.6 ± 2.4 µM with H1299 cells. Besides, the “Inhibition in the Control Linked Enzyme Assay (0.5 μM)” value (“Inhibition … (0.5 μM)” below) in experiment [1] was 0.5 ± 3.2%.
With `O=C1c2ccccc2C(=O)c2c1cc(NS(=O)(=O)c1ccccc1I)c(O)c2O` [Compound 9q, 2-Iodo-N-(3,4-dihydroxy-9,10-dioxo-9,10-dihydroanthracen-2-yl) benzenesulfonamide], the IC50 at PGAM1 was 0.26 ± 0.03 µM; in the experiment on H1299 cells, 26.4 ± 3.8 µM. In addition, in experiment [1], the “Inhibition … (0.5 μM)” value is −2.3 ± 2.4%.
As to `N#Cc1ccc(S(=O)(=O)Nc2cc3c(c(O)c2O)C(=O)c2ccccc2C3=O)cc1` [Compound 9e, 4-Cyano-N-(3,4-dihydroxy-9,10-dioxo-9,10-dihydroanthracen-2-yl) benzenesulfonamide], the half-inhibitory concentration (IC50) against PGAM1 was 0.61 ± 0.12 µM; in the experiment with H1299 cells, 26.3 ± 4.5 µM. The “Inhibition … (0.5 μM)” value in experiment [1] is reported as 6.7 ± 0.2%.
Regarding `O=C(O)COc1ccc2c(c1OCC(=O)O)C(=O)c1ccccc1C2=O` [Compound 6b, 2,2′-((9,10-dioxo-9,10-dihydroanthracene-1,2-diyl)bis(oxy)) diacetic acid], the inhibition at 10 µM on PGAM1 was 14.3 ± 5.9%.
Consider `O=C1c2ccccc2C(=O)c2c1cc(NS(=O)(=O)c1ccc([N+](=O)[O-])cc1)c(O)c2O` [Compound 9b, N-(3,4-Dihydroxy-9,10-dioxo-9,10-dihydroanthracen-2-yl)-4-nitrobenzenesulfonamide], for which the IC50 at PGAM1 is 0.47 ± 0.08 µM; in the experiment on H1299 cells it was 25.8 ± 2.2 µM. Further, the “Inhibition … (0.5 μM)” value in experiment [1] was −2.9 ± 0.3%.
Take `O=C1c2ccccc2C(=O)c2c1cc(NS(=O)(=O)c1ccc(C(F)(F)F)cc1)c(O)c2O` [Compound 9a, N-(3,4-Dihydroxy-9,10-dioxo-9,10-dihydroanthracen-2-yl)-4-(trifluoromethyl) benzenesulfonamide]: the results for the IC50 against PGAM1 and in the experiment on H1299 cells were 0.54 ± 0.04 µM and 20.7 ± 0.6 µM, respectively. In experiment [1], the “Inhibition … (0.5 μM)” value came out at 8.0 ± 5.0%.
Regarding `O=C1c2ccccc2C(=O)c2c1cc(NS(=O)(=O)c1ccc(F)cc1)c(O)c2O` [Compound 9f, N-(3,4-Dihydroxy-9,10-dioxo-9,10-dihydroanthracen-2-yl)-4-fluorobenzenesulfonamide], the IC50 on PGAM1 is 0.54 ± 0.07 µM; with H1299 cells it was 24.2 ± 2.6 µM. The “Inhibition … (0.5 μM)” value in experiment [1] came out at 5.7 ± 0.7%.
Regarding `CCOC(=O)COc1cc(NS(=O)(=O)c2ccc(Cl)cc2)c2c(c1O)C(=O)c1ccccc1C2=O` [Compound 12, ethyl 2-((4-((4-chlorophenyl)sulfonamido)-1-hydroxy-9,10-dioxo-9,10-dihydroanthracen-2-yl)oxy) acetate], the inhibition at 10 µM at PGAM1 turned out to be 10%.
For the compound `O=C1c2ccccc2C(=O)c2c1cc(NS(=O)(=O)c1ccccc1F)c(O)c2O` [Compound 9g, N-(3,4-Dihydroxy-9,10-dioxo-9,10-dihydroanthracen-2-yl)-2-fluorobenzenesulfonamide], the IC50 was 0.79 ± 0.04 µM against PGAM1 and 31.3 ± 1.9 µM with H1299 cells. The “Inhibition … (0.5 μM)” value in experiment [1] turned out to be 10.2 ± 3.0%.
Compound `O=C(O)COc1c(NS(=O)(=O)c2ccc(Cl)cc2)cc2c(c1O)C(=O)c1ccccc1C2=O` [Compound 14b, 2-((3-((4-chlorophenyl)sulfonamido)-1-hydroxy-9,10-dioxo-9,10-dihydroanthracen-2-yl)oxy) acetic acid] came in with an IC50 on PGAM1 greater than 10 µM.
For `COc1c(NS(=O)(=O)c2ccc(Cl)cc2)cc2c(c1O)C(=O)c1ccccc1C2=O` [Compound 14c, 4-chloro-N-(4-hydroxy-3-methoxy-9,10-dioxo-9,10-dihydroanthracen-2-yl) benzene-sulfonamide], the values for the IC50 against PGAM1 and with H1299 cells were 2.92 ± 0.11 µM and 26.9 ± 2.1 µM, respectively.
As to `NNC(=O)COc1c(NS(=O)(=O)c2ccc(Cl)cc2)cc2c(c1O)C(=O)c1ccccc1C2=O` [Compound 14f, 4-chloro-N-(3-(2-hydrazinyl-2-oxoethoxy)-4-hydroxy-9,10-dioxo-9,10-dihydroanthracen-2-yl) benzenesulfonamide], the IC50 is 2 ± 0.2 µM at PGAM1 and greater than 100 µM with H1299 cells.
For the compound `O=C1c2ccccc2C(=O)c2c1cc1c(c2O)OCCN1S(=O)(=O)c1ccc(Cl)cc1` [Compound 14e, 4-((4-chlorophenyl)sulfonyl)-12-hydroxy-3,4-dihydro-2H-anthra[2,3-b][1,4]-oxazine-6,11-dione], on PGAM1, the IC50 was greater than 10 µM.
Regarding `O=C1c2ccccc2C(=O)c2c1cc(NS(=O)(=O)c1cccc(Br)c1)c(O)c2O` [Compound 9o, 3-Bromo-N-(3,4-dihydroxy-9,10-dioxo-9,10-dihydroanthracen-2-yl) benzenesulfonamide], the IC50 stood at 0.35 ± 0.005 µM against PGAM1 and 24.5 ± 0.2 µM with H1299 cells. Also, the “Inhibition … (0.5 μM)” value in experiment [1] is 7.7 ± 0.2%.
In the case of `O=C1c2ccccc2C(=O)c2c1cc(NS(=O)(=O)c1ccccc1Br)c(O)c2O` [Compound 9n, 2-Bromo-N-(3,4-dihydroxy-9,10-dioxo-9,10-dihydroanthracen-2-yl) benzenesulfonamide], the IC50 amounted to 0.2 ± 0.04 µM on PGAM1 and 50 ± 0.6 µM in the experiment on H1299 cells. Also, in experiment [1], the “Inhibition … (0.5 μM)” value came out at 6.1 ± 0.8%.
Regarding `O=C1c2ccccc2C(=O)c2c1cc(NS(=O)(=O)c1ccc(Cl)cc1Cl)c(O)c2O` [Compound 9j, 2,4-Dichloro-N-(3,4-dihydroxy-9,10-dioxo-9,10-dihydroanthracen-2-yl) benzenesulfonamide], the IC50 was 0.28 ± 0.07 µM at PGAM1 and 23.7 ± 1.1 µM in the experiment with H1299 cells. Moreover, the “Inhibition … (0.5 μM)” value in experiment [1] was −2.0 ± 5.1%.
With `CCOC(=O)COc1ccc2c(c1O)C(=O)c1ccccc1C2=O` [Compound 6c], the inhibition at 10 µM at PGAM1 came out at 0%.
`CS(=O)(=O)Oc1c(NS(=O)(=O)c2ccc(Cl)cc2)cc2c(c1O)C(=O)c1ccccc1C2=O` [Compound 14g, 3-((4-chlorophenyl)sulfonamido)-1-hydroxy-9,10-dioxo-9,10-dihydroanthracen-2-yl methanesulfonate]: the IC50 against PGAM1 was greater than 10 µM; in the experiment on H1299 cells it was 28.5 ± 0.6 µM.
For the compound `CCOC(=O)COc1c(NS(=O)(=O)c2ccc(Cl)cc2)cc2c(c1O)C(=O)c1ccccc1C2=O` [Compound 14a, ethyl 2-((3-((4-chlorophenyl)sulfonamido)-1-hydroxy-9,10-dioxo-9,10-dihydroanthracen-2-yl)oxy) acetate], the IC50 against PGAM1 is greater than 10 µM.
As to `O=C(O)COc1cc(NS(=O)(=O)c2ccc(Cl)cc2)c2c(c1O)C(=O)c1ccccc1C2=O` [Compound 13, 2-((4-((4-chlorophenyl)sulfonamido)-1-hydroxy-9,10-dioxo-9,10-dihydroanthracen-2-yl)oxy) acetic acid], on PGAM1, the inhibition at 10 µM is 34%.
In the case of `CN(C)C(=O)COc1ccc2c(c1O)C(=O)c1ccccc1C2=O` [Compound 6e, 2-((1-hydroxy-9,10-dioxo-9,10-dihydroanthracen-2-yl)oxy)-N,N-dimethylacetamide], the inhibition at 10 µM against PGAM1 came out at 20.2 ± 2.2%.
With `O=C(O)COc1ccc2c(c1O)C(=O)c1ccccc1C2=O` [Compound 6d], the inhibition at 10 µM at PGAM1 worked out at 5.5 ± 0.03%.
